According to PMC3684613 (PLoS ONE, 2013):
pEC50: −log10 of the molar value. Where two headings read alike, the source gives them in different places.

How the values were obtained:
[1] = system: P. falciparum 3D7; experiment: DAPI stain fluorescent high content imaging assay, P. falciparum 3D7 (confirmatory screen, Avery); conditions: Plasmodium falciparum; for inhibition of growth at 5 µM: 3D7, read-out: percent_inh @ 5 uM; for pEC50: 3D7, read-out: EC50_nM; for inhibition of growth at 2 µM: 3D7, read-out: percent_inh @ 2 uM
[2] = system: P. falciparum 3D7; design: method as in ChEMBL-NTD; conditions: ref ChEMBL-NTD, cited from earlier work
[3] = values follow the order of the source (GNF; GSK; StJude)
[4] = original screening data, source (GSK, GNF, StJude), several values separated by ';' in order of sources

| Structure (SMILES) | inhibition of growth at 5 µM [1] [%] | pEC50 [1] | other results |
| --- | --- | --- | --- |
| CCN1CCN(c2cc(C)c3cc(NC(=O)c4ccc(OC)c(OC)c4)ccc3n2)CC1 [MMV019074] | 99 |  | pEC50 ([2]; source GSK): 5.99 |
| COc1ccc(-c2cc3c(nn2)-c2ccccc2C3=O)cc1 [MMV666026] | 97 |  | pEC50 ([2]; source GNF (GNF-Pf ids)): 5.42 |
| O=C(Nc1ccc(-c2nc3cc(NC(=O)c4ccc(Cl)cc4)ccc3[nH]2)cc1)c1ccc(Cl)cc1 [MMV006962] |  |  | inhibition at 1.25 µM ([1]; 3D7, read-out: % inh. At 1.25 uM): 48%; pEC50 [2, 3]: 6.00 |
| Cc1ccc(C(=O)c2oc3ccc4c(C)cc(=O)oc4c3c2C)cc1 [MMV086103] | 96 | 6.04 | pEC50 [2, 3]: 5.99 |
| Cc1ccc2nc(C)cc(Nc3cccc(C(F)(F)F)c3)c2c1 [MMV000326] | 98 | 5.93 | pEC50 ([2]; source StJude (SJ ids)): 6.06 |
| COc1cccc(NC(=O)[C@H](C(C)C)n2c(=O)[nH]c3ccccc3c2=O)c1 [MMV665878] | 99 | 6.86 | pEC50 ([2]; source GSK (TCMDC id)): 6.57 |
| CC(=O)c1sc(NC(=O)Nc2ccc(C)cc2C)nc1C [MMV665894] | 64 | 6.27 | pEC50 [2, 3]: 6.04 |
| COc1cc2c(cc1OC)C1=NNC(=O)C1=NC(C)(C)C2 [MMV084940] |  | 5.98 | pEC50 [2, 4]: 5.80 |
| CCOc1ccccc1CNC(=O)C1c2ccccc2C(=O)N(CC(C)C)C1c1cccs1 (centres unmarked) [MMV000653] | 97 | 5.88 | pEC50 ([2]; source StJude): 5.84 |
| CCOc1ccc(CCNC(=O)c2cccs2)cc1OCC [MMV007978] | 95 |  | pEC50 [2, 4]: 6.05 |
| Oc1ccc(Cl)cc1CNc1nc2ccccc2[nH]1 [MMV665850] | 95 |  | pEC50 ([2]; source GNF): 6.04 |
| COc1cc(-c2nc(-c3ccc(Sc4ccccc4)cc3)c(-c3ccccc3)[nH]2)cc(OC)c1O [MMV007273] | 97 | 6.46 | pEC50 ([2]; source GNF (GNF-Pf ids)): 5.89 |
| CCCCN(CCCC)S(=O)(=O)c1ccc(NC(=O)c2ccco2)cc1 [MMV007881] | 78 |  | pEC50 [2, 4]: 5.85 |
| CCCCc1c(CCC)c(=N)c2ccccc2n1C [MMV007764] | 77 | 6.15 | pEC50 [2, 3]: 6.51 |
| COc1ccc2sc(N(Cc3cccnc3)C(=O)c3ccc(C#N)cc3)nc2c1 [MMV001239] |  |  | inhibition of growth at 2 µM [1]: 89%; pEC50 [2, 3]: 4.82 |
| CN1CCN(c2c3c(c(C#N)c4nc5ccccc5n24)CCC3)CC1 [MMV008127] |  | 5.40 | inhibition of growth at 2 µM [1]: 42%; pEC50 [2, 4]: 5.93 |
| CCCCCn1c(=N)n(CC(O)COc2cccc(C)c2)c2ccccc21 (centres unmarked) [MMV000444] | 96 |  | pEC50 ([2]; source StJude (SJ ids)): 5.58 |
| CC(C)CCNCC(O)Cn1c2ccccc2c2ccccc21 (centres unmarked) [MMV006787] | 97 | 6.33 | pEC50 ([2]; source GNF (GNF-Pf ids)): 6.70 |
| COc1ccc(C(=O)C2CC2c2ccc(Cl)cc2)cc1 (centres unmarked) [MMV665924] | 94 | 5.97 | pEC50 ([2]; source GNF (GNF-Pf ids)): 6.66 |
| COc1ccc(-c2nc3cc(Cc4ccc5[nH]c(-c6ccc(OC)cc6)nc5c4)ccc3[nH]2)cc1 [MMV007384] | 98 | 6.75 | pEC50 ([2]; source GNF (GNF-Pf id)): 6.63 |
| Cc1cc(Nc2ccc(Cl)cc2)n2nc(C(F)(F)F)nc2n1 [MMV011256] |  | 6.67 | pEC50 ([2]; source GSK (TCMDC id)): 6.93 |

| Structure (SMILES) | inhibition of growth at 5 µM [1] [%] | pEC50 [1] | other results |
| --- | --- | --- | --- |
| Cc1cc(Nc2ccc3ccccc3c2)n2ncnc2n1 [MMV011099] |  | 6.62 | pEC50 ([2]; source GSK (TCMDC id)): 6.76 |
| Cc1cc(C)c2c(c1)OCN(Cc1ccccc1Cl)C2 [MMV006558] | 98 | 6.57 | pEC50 ([2]; source GNF (GNF-Pf id)): 6.72 |
| COc1cccc(C(=O)Nc2ccc(-c3nc4ccccc4[nH]3)cc2)c1 [MMV019762] | 83 |  | pEC50 [2, 4]: 6.10 |
| Cc1nc2ccccc2c(O)c1CC=C(Cl)Cl [MMV665994] | 89 | 6.08 | pEC50 ([2]; source GNF (GNF-Pf ids)): 6.30 |
| c1ccc2cc3c(Nc4ccc(N5CCOCC5)cc4)ccnc3cc2c1 [MMV006861] | 97 | 6.60 | pEC50 ([2]; source GNF (GNF-Pf id)): 6.17 |
| CCN(CC)S(=O)(=O)c1ccc(-c2csc(Nc3ccc(C)c(C)c3)n2)cc1 [MMV009108] | 97 | 6.19 | pEC50 [2, 4]: 5.68 |
| COc1cccc(O)c1CN1CCC2(CCCN(Cc3ccc(F)cc3)C2)C1 (centres unmarked) [MMV666061] | 95 | 6.28 | pEC50 ([2]; source GSK): 6.06 |
| COc1cc(CNCCc2ccc(Cl)cc2)cc(OC)c1O [MMV128432] | 97 | 5.75 | pEC50 [2, 3]: 5.16 |
| c1ccc(C2=Nc3ccccc3N=C(c3ccccc3)c3ccccc32)cc1 [MMV007113] | 99 | 6.18 | pEC50 [2, 3]: 6.17 |
| COc1ccc(-c2cc(=O)oc3c4c(ccc23)OCN(Cc2ccc(F)cc2)C4)cc1 [MMV000604] | 96 | 6.13 | pEC50 ([2]; source StJude (SJ ids)): 5.28 |
| CC1CN(C(=O)c2sc3ccccc3c2Cl)CC(C)O1 (centres unmarked) [MMV020492] | 95 | 7.59 | pEC50 ([2]; source GSK (TCMDC id)): 7.06 |
| CCOc1c(Cl)cc(CNC(C)C(O)c2ccccc2)cc1OC (centres unmarked) [MMV665857] | 98 |  | pEC50 ([2]; source GNF): 5.78 |
| OC(CNCc1ccccc1)Cn1c2ccccc2c2ccccc21 (centres unmarked) [MMV000839] | 95 | 5.97 | pEC50 ([2]; source StJude (SJ ids)): 5.43 |
| COc1cc(C(=O)Nc2ccc(-c3nc4ccccc4[nH]3)cc2)cc(OC)c1OC [MMV665898] | 95 | 5.91 | pEC50 [2, 3]: 6.01 |
| CCn1c2c(c(=N)c3c1CCC3)CCCC2 [MMV000340] | 77 | 6.16 | pEC50 [2, 3]: 5.51 |
| COc1cc(OC)c(N(C)C(=O)c2cc3c(s2)-c2ccccc2S(=O)(=O)C3)cc1Cl [MMV006427] | 100 | 7.11 | pEC50 ([2]; source GNF (GNF-Pf id)): 6.95 |
| Cc1ccc(Cn2c(N3CCC(C(=O)NCc4cccs4)CC3)nc3ccccc32)cc1 [MMV007564] | 73 | 6.02 | pEC50 ([2]; source GNF): 6.28; pEC50 ([2]; source GSK): 6.13 |
| CCc1c(C)c(=N)c2ccccc2n1C [MMV006278] | 76 | 6.42 | pEC50 ([2]; source GNF (GNF-Pf id)): 6.15 |
| CCC(O)c1ccc(Br)cc1NC(=O)c1cccc(Cl)c1 (centres unmarked) [MMV020654] | 97 | 6.19 | pEC50 [2, 4]: 5.99 |
| COc1ccc(C)c2sc(N(Cc3cccnc3)C(=O)c3ccc(C#N)cc3)nc12 [MMV001241] | 91 |  | pEC50 ([2]; source StJude (SJ ids)): 4.82 |
| CCC(=O)Nc1nnc(Cc2ccc(OC)c(OC)c2)s1 [MMV020942] | 47 |  | pEC50 ([2]; source GSK (TCMDC ids)): 6.04 |

| Structure (SMILES) | inhibition of growth at 5 µM [1] [%] | pEC50 [1] | other results |
| --- | --- | --- | --- |
| Oc1ccc(C(=C(Cl)Cl)c2ccc(O)cc2)cc1 [MMV665949] | 95 |  | pEC50 ([2]; source StJude (SJ ids)): 5.61 |
| Cc1ccc(-c2cc(C(=O)Nc3ccc(S(=O)(=O)N4CCCCC4)cc3)[nH]n2)c(O)c1 [MMV665906] | 94 | 6.27 | pEC50 ([2]; source GSK): 5.75 |
| CCOc1cc2c(cc1OCC)C(c1cc(C)c(O)c(C)c1)NCC2 (centres unmarked) [MMV000483] | 97 | 6.17 | pEC50 [2, 4]: 5.74 |
| COc1ccc(CN2CCCC(C(=O)c3ccc(C(F)(F)F)cc3)C2)c(O)c1 (centres unmarked) [MMV666060] | 97 |  | pEC50 ([2]; source GSK (TCMDC ids)): 6.07 |
| O=C(Cc1ccccc1)NC(c1ccc(Cl)cc1)c1c(O)ccc2ccccc12 (centres unmarked) [MMV665972] | 97 | 5.94 | pEC50 [2, 3]: 4.82 |
| CCN(CC)CCNc1ccnc2cc3ccccc3cc12 [MMV006303] |  | 6.41 | pEC50 [2, 3]: 7.54 |
| CC1CC(C)CN(C(=O)c2ccc(Cl)cc2Cl)C1 (centres unmarked) [MMV001344] | 95 | 6.12 | pEC50 [2, 4]: 5.88 |
| COc1ccc(C2Sc3ccccc3N=C3C2=C(O)c2ccccc23)cc1 (centres unmarked) [MMV000563] | 96 | 6.07 | pEC50 ([2]; source GNF): 6.62 |
| O=C(Nc1ccc(Cl)cc1)N1CCN(c2ccc3nncn3n2)CC1 [MMV665917] | 62 |  | pEC50 ([2]; source GNF): 5.69 |
| CCc1ccc(Nc2cc(C)c3ccc(O)cc3n2)cc1 [MMV000570] | 98 | 6.71 | pEC50 ([2]; source StJude (SJ id)): 6.14 |
| CCOC(=O)c1cnc2c(C)cc(C)cc2c1Nc1ccc(OC)c(OC)c1 [MMV008294] | 96 | 6.63 | pEC50 ([2]; source GNF (GNF-Pf id)): 5.75 |
| Oc1c(CN2CCN(c3ccccc3F)CC2)cc(Br)c2cccnc12 [MMV000760] | 91 |  | pEC50 [2, 4]: 5.42 |
| COc1ccc2nc(C)cc(Nc3cccc(O)c3)c2c1 [MMV008212] | 98 | 6.01 | pEC50 [2, 4]: 6.64 |
| CC(C)(C)CC(C)(C)NCC(O)COc1ccc2c(c1)CCC2 (centres unmarked) [MMV665817] | 78 |  | pEC50 ([2]; source StJude): 5.35 |
| OC(CNC1CCCC1)Cn1c2ccccc2c2ccccc21 (centres unmarked) [MMV000848] | 97 | 6.18 | pEC50 [2, 4]: 5.97 |
| COc1ccc(C2C(C(=O)Nc3cccc(OC)c3)c3ccccc3C(=O)N2C2CCCCC2)cc1 (centres unmarked) [MMV008455] | 97 | 5.93 | pEC50 ([2]; source GNF (GNF-Pf ids)): 5.96 |
| CCN(CC)CCCNc1nc(-c2ccc(Cl)cc2)nc2ccccc12 [MMV665961] | 92 |  | pEC50 ([2]; source StJude): 4.82 |
| COc1nc(Nc2ccc(C(C)C)cc2)nc(OC)n1 [MMV007808] | 88 | 5.94 | pEC50 [2, 4]: 6.17 |
| COCCn1c(C)nc2ccccc2c1=O [MMV665904] | 59 |  | pEC50 [2, 4]: 5.84 |
